Results: patent publication US9822414B2, “In vitro method for predicting in vivo genotoxicity of chemical compounds” (priority 2011, dated 2017)
“And” between values parts separate entries of the source, which are not always exact repeats. Identical values can stand only once. Like-named read-outs stand apart in the source and are kept apart here.

Legend:
PWWP2B = assay: Gene expression of PWWP2B in HepG2 cells exposed to compound (microarray, log2 treatment:control ratio); format: cell-based, human
[1] = test system: conventional in vitro genotoxicity assays; settings: cited from earlier work
rodents = settings: cited from earlier work
Salmonella typhimurium = settings: cited from earlier work
HepG2 cell [2] = assay: Class prediction of in vivo genotoxicity by the method of the invention (Ames stratification plus three-gene expression in HepG2); settings: 62 compounds, three replicates, HepG2 24 h
HepG2 cell [3] = test system: HepG2 cell
LOC100505880 = assay: Gene expression of LOC100131914/LOC100505880 in HepG2 cells exposed to compound (microarray, log2 treatment:control ratio); format: cell-based, human
NR0B2 = assay: Gene expression of NR0B2 in HepG2 cells exposed to compound (microarray, log2 treatment:control ratio); format: cell-based, human
PNMA6A = assay: Gene expression of PNMA6A in HepG2 cells exposed to compound (microarray, log2 treatment:control ratio); format: cell-based, human; settings: HepG2 cells
C10orf65/HOGA1 = assay: Gene expression of C10orf65/HOGA1 in HepG2 cells exposed to compound (microarray, log2 treatment:control ratio); format: cell-based, human
SLC40A1 = assay: Gene expression of SLC40A1 in HepG2 cells exposed to compound (microarray, log2 treatment:control ratio); format: cell-based, human; settings: HepG2 cells, 24 h exposure, Ames negative compounds, one line per replicate of triplicate experiments
[4] = positive when at least one in vivo assay (MN, CA) positive, equivocal considered positive
[5] = HepG2 cells, 24 h exposure, Ames positive compounds, one line per replicate of triplicate experiments
[6] = 24 h exposure, Ames negative compounds, one line per replicate of triplicate experiments
[7] = expression versus reference value, single measurement of three

SMILES	PWWP2B above or below the reference value (PWWP2B)	In vitro GTX [1]	Standard (in vivo genotoxicity designation) (rodents; in vivo)	Log2 treatment: control ratio PWWP2B (PWWP2B)	Ames (Salmonella typhimurium)	Prediction (class prediction results using the method of the invention) (HepG2 cell [2])	Average result over three measurements (HepG2 cell [3])	In vivo GTX (rodents; [4])	LOC100505880 above or below the reference value (LOC100505880)	NR0B2 above or below the reference value (NR0B2)	At least ⅔ genes +? (HepG2 cell [3])	also measured
OCCCl [2-Cl]	+ (Plus sign indicates a value above the reference value)	+	NGTX									Results in the conventional in vitro genotoxicity assays ([1]; see Table 5): positive results
CC(=O)Nc1ccc2c(c1)Cc1ccccc1-2 [2AAF]		+	GTX	−0.045 and −0.14 and 0.042	+	GTX+	GTX	+				
CC(=O)Nc1cccc2c1-c1ccccc1C2 [4AAF]		+	NGTX		+	NGTX+	NGTX		− (minus sign indicates a value below the reference value)			Log2 treatment: control ratio LOC100505880 (LOC100505880): −0.217 and −0.295 and −0.101; Log2 treatment: control ratio NR0B2 (NR0B2): −0.04 and −0.278 and −0.088
Oc1cccc2cccnc12 [8HQ]		+	NGTX	0.014 and −0.165 and −0.069	+	GTX+	GTX					
Nc1ccc(-c2ccccc2)cc1 [ABP]	+ (Plus sign indicates a value above the reference value)							+		+ (Plus sign indicates a value above the reference value)		
Cn1cnc([N+](=O)[O-])c1Sc1ncnc2nc[nH]c12 [AZA]		+	GTX				GTX				GTX	PWWP2B above or below the reference value (PWWP2B; HepG2, Ames positive compounds, per replicate, reference value −0.071): + (Plus sign indicates a value above the reference value); Log2 treatment: control ratio PWWP2B (PWWP2B; [5]): 0.536 and 0.044 and −0.035; Ames (Salmonella typhimurium; Ames results based on NTP data): +; Prediction (class prediction results using the method of the invention) (HepG2 cell [3]): GTX; LOC100505880 above or below the reference value (LOC100505880; HepG2, Ames positive compounds, per replicate, reference value −0.054): + (Plus sign indicates a value above the reference value); Log2 treatment: control ratio LOC100505880 (LOC100505880; [5]): 1.541 and 0.022 and 1.33; In vivo GTX (rodents; in vivo): +; NR0B2 above or below the reference value (NR0B2; HepG2, Ames positive compounds, per replicate, reference value −0.099): + (Plus sign indicates a value above the reference value); Log2 treatment: control ratio NR0B2 (NR0B2; [5]): 1.473 and 0.232 and 0.893
Nc1ccc(-c2ccc(N)cc2)cc1 [BZ]		+	GTX		+		GTX			+ (key: +: Plus sign indicates a value above the reference value; −: minus sign indicates a value below the reference value)	GTX	Prediction (class prediction results using the method of the invention) (HepG2 cell [3]): GTX; In vivo GTX (rodents; in vivo): +
O=P1(N(CCCl)CCCl)NCCCO1 (stereo not drawn) [CP]		+	GTX	0.042 and −0.221 and 0.073	+	GTX	GTX	+	+ (Plus sign indicates a value above the reference value)		GTX	Log2 treatment: control ratio LOC100505880 (LOC100505880): −0.031 and −0.01 and 0.139
O=C(O)CCCc1ccc(N(CCCl)CCCl)cc1 [Cb]		+	GTX		+	GTX	GTX	+	+ (Plus sign indicates a value above the reference value)	+ (Plus sign indicates a value above the reference value)	GTX	
CCN(CC)N=O [DEN]	+ (Plus sign indicates a value above the reference value)	+	GTX					+	+ (Plus sign indicates a value above the reference value)			
CCN(N=O)C(N)=O [ENU]	+ (Plus sign indicates a value above the reference value)	+	GTX	0.01 and 0.06 and 0.11	+	GTX	GTX	+		+ (Plus sign indicates a value above the reference value)	GTX	
Cn1c(N)nc2c3cccnc3ccc21 [IQ]	+ (Plus sign indicates a value above the reference value)	+	GTX	0.188 and −0.003 and −0.052	+	GTX	GTX	+	+ (Plus sign indicates a value above the reference value)		GTX	
Nc1ccc(Cc2ccc(N)c(Cl)c2)cc1Cl [MOCA]	+ (Plus sign indicates a value above the reference value)	+	GTX					+		+ (Plus sign indicates a value above the reference value)		
CCC1(c2ccccc2)C(=O)NC(=O)NC1=O [PhB]	− (minus sign indicates a value below the reference value)	+	NGTX	−0.169 and −0.272 and −0.154	+		NGTX		− (minus sign indicates a value below the reference value)		NGTX	Results in the conventional in vitro genotoxicity assays [1]: positive results; Classification of NGTX compounds by the method of the invention (false positives) (HepG2 cell [3]): misclassification; Prediction (class prediction results using the method of the invention) (HepG2 cell [3]): NGTX; Log2 treatment: control ratio LOC100505880 (LOC100505880): −0.154 and −0.38 and −0.303; In vivo GTX (rodents; in vivo): −
CCCCCCCCCCCCCC(=O)O[C@@H]1[C@@H](C)[C@@]2(O)[C@@H](C=C(CO)C[C@]3(O)C(=O)C(C)=C[C@@H]23)[C@H]2C(C)(C)[C@]12OC(C)=O [TPA]		−			−	NGTX						Log2 treatment: control ratio PNMA6A (PNMA6A; [6]): −0.493 and −0.137 and −0.26; PNMA6A (PNMA6A; [7]): − (below the reference value); Log2 treatment: control ratio C10orf65/HOGA1 (C10orf65/HOGA1; [6]): 0.108 and −0.423 and 0.14; C10orf65/HOGA1 (C10orf65/HOGA1; [7]): − (below the reference value); Standard (rodents; standard in vivo genotoxicity designation): NGTX; Log2 treatment: control ratio SLC40A1 (SLC40A1): −0.327 and 1.338 and 0.199
COc1ccc(C)cc1N [pCres]	+ (Plus sign indicates a value above the reference value)	+	GTX		+	GTX	GTX	+		+ (Plus sign indicates a value above the reference value)	GTX	
